Test results taken from PubChem BioAssay (NCI).
Several values for one entry are separate records, joined by “and”; a condition that tells them apart may be missing. Identical values can stand only once.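 Five compound concentrations were applied to cells in 96-well plates for 48 hours; endpoints were derived by simple linear interpolation of the resulting dose-response curve. Abbreviation: GI50, concentration required for 50% inhibition of growth. TGI is the concentration that stops growth completely.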

How the values were obtained:
Assay in all cases: NCI-60 cell line screen, 48 h
RPMI-8226 leukemia = system: RPMI-8226 leukemia
KM12 colon = system: KM12 colon
SW-620 colon = system: SW-620 colon
LOX IMVI melanoma = system: LOX IMVI melanoma
HL-60(TB) leukemia = system: HL-60(TB) leukemia
NCI-H522 lung = system: NCI-H522 lung
IGROV1 ovarian = system: IGROV1 ovarian
CCRF-CEM leukemia = system: CCRF-CEM leukemia
HOP-62 NSCLC = system: HOP-62 NSCLC
HCT-116 colon = system: HCT-116 colon

| SMILES | TGI (RPMI-8226 leukemia) | TGI (KM12 colon) | TGI (SW-620 colon) | TGI (LOX IMVI melanoma) | TGI (HL-60(TB) leukemia) | TGI (NCI-H522 lung) | TGI (IGROV1 ovarian) | TGI (CCRF-CEM leukemia) | TGI (HOP-62 NSCLC) | TGI (HCT-116 colon) | GI50 (RPMI-8226 leukemia) | GI50 (KM12 colon) | GI50 (SW-620 colon) | GI50 (LOX IMVI melanoma) | GI50 (HL-60(TB) leukemia) | GI50 (NCI-H522 lung) | GI50 (IGROV1 ovarian) | GI50 (CCRF-CEM leukemia) | GI50 (HOP-62 NSCLC) | GI50 (HCT-116 colon) |
| --- | --- | --- | --- | --- | --- | --- | --- | --- | --- | --- | --- | --- | --- | --- | --- | --- | --- | --- | --- | --- |
| COc1cc(CCC(=O)O)c2cc3ccccc3cc2c1O | 26.4 µM | 44.1 µM | 51.5 µM | 53.5 µM | 39.1 µM | 45.1 µM | 41.1 µM | 13.8 µM | 32.7 µM | 31 µM | – | – | – | – | – | – | – | – | – | – |
| O=C1CC(NCCCNC2CC(=O)c3c(Br)sc(Br)c32)c2c(Br)sc(Br)c21 (centres undefined) | > 100 µM | 3.5 µM | > 100 µM | – | > 100 µM | – | 3.7 µM | – | 14 µM | 2.41 µM | – | – | – | – | – | – | – | – | – | – |
| CC(=O)C1=C(C)N(c2ccc(C)cc2)C2(O)C=CC(=O)C3=C(O)c4ccccc4C(=O)C312 (centres undefined) | > 100 µM | 55.1 µM | > 100 µM | > 100 µM | > 100 µM | 32.5 µM | > 100 µM | – | > 100 µM | > 100 µM | – | – | – | – | – | – | – | – | – | – |
| Nc1cccc(/C=C/CN2CCN(CCOC(c3ccccc3)c3ccccc3)CC2)c1 | 15.2 µM | 25.4 µM | 33.9 µM | 28.9 µM | 22.9 µM | 27.7 µM | 30.1 µM | 25.7 µM | 26.9 µM | 25.4 µM | – | – | – | – | – | – | – | – | – | – |
| CC1C(O)[C@@]2(OC[C@@]34C(=O)CC5(O)[C@H](CCC6Cc7nc8c(nc7C[C@]65C)CC5CC[C@@H]6C7=C[C@H]9O[C@@]%10(O[C@@](C)(CO)C[C@@H]%10O)C(C)[C@@]9(O)[C@]7(C)[C@@H](O)CC6[C@]5(C)C8)C3=CC[C@H]4C2C)OC1(C)C (some centres undefined) | < 0.000355 µM | > 3.55 µM | 0.0433 µM | 0.864 µM | 0.536 µM | 0.083 µM | > 3.55 µM | 0.0966 µM | 0.0015 µM | 0.542 µM | – | – | – | – | – | – | – | – | – | – |
| Cc1ccc(NC(=O)CC(=O)n2nc(-c3ccccc3)c(N=Nc3ccccc3C(=O)O)c2-c2ccccc2)cc1 | > 100 µM | > 100 µM | > 100 µM | > 100 µM | – | > 100 µM | > 100 µM | – | > 100 µM | > 100 µM | – | – | – | – | – | – | – | – | – | – |
| COc1cccc2c1C(=O)c1c(O)c3c(c(O)c1C2=O)C[C@@](O)(C(C)=O)C[C@@H]3OC1CC(N(C)C)C(O)C(C)O1 (some centres undefined) | 0.23 µM and 1.92 µM | – | 0.622 µM and 1.56 µM | – | – | – | – | – | – | – | < 0.0159 µM | 0.0171 µM and 0.0131 µM | 0.00484 µM | 0.00387 µM | 0.0402 µM | 0.036 µM and 0.021 µM | 0.0218 µM and < 0.0111 µM | 0.0291 µM | 0.117 µM and < 0.0167 µM | 0.00225 µM |
| CN(CCNC(=O)c1cn(C)c2c1ccc1cc(Cl)ccc12)CCNC(=O)c1cn(C)c2c1ccc1cc(Cl)ccc12 | – | 3.03 µM | 40.5 µM | 34 µM | 10.4 µM | 3.68 µM | 21.6 µM | 66 µM | – | 3.18 µM | – | – | – | – | – | – | – | – | – | – |
